Patent publication US12629452B2, “Cranial suture regeneration” (University of Southern California, priority 2021, dated 2026)

Tested on: suture mesenchymal cells
Experiment: Western blot of Runx2 and OPN (osteogenic differentiation)
Format: cell-based, mouse
Conditions: 20 μM Wnt agonist 1 or 100 nM LY2090314, one or two weeks, vs vehicle
Experimental: Suture mesenchymal cells from one-month-old C57BL/6J mice were cultured with 20 μM Wnt agonist 1 (Selleck, S8178) or 100 nM LY2090314 (Selleck, S7063) for one or two weeks in αMEM. Medium was changed every other day. Total protein was extracted using a solution of loading buffer (Cell Signaling Technology, 7723S), protease inhibitor (Thermo Fisher Scientific, 1861278) and DTT (Cell Signaling Technology, 7723S), then separated by 10% SDS-PAGE and transferred to PVDF membranes (Millipore, ISEQ00005). Membranes were blocked with 5% non-fat dry milk dissolved in TBST for 2 hours at room temperature with gentle shaking, and then incubated with primary antibodies: anti-Runx2 (Cell signaling technology 12556, 1:1000), anti-OPN (Abcam ab63856, 1:500), and anti-βactin (Abcam ab20272, 1:1000) at 4° C. overnight followed by corresponding horseradish-peroxidase (HRP)-conjugated secondary antibodies. Protein expression was detected by Bio-Rad ChemiDoc Touch (Bio-Rad) and intensities of bands were quantitated by Image J software.

| SMILES | OPN expression level | Runx2 expression level |
| --- | --- | --- |
| O=C1NC(=O)C(c2cnc3ccccn23)=C1c1cn2c3c(cc(F)cc13)CN(C(=O)N1CCCCC1)CC2 [LY2090314] | significantly increased | significantly increased |
| COc1cccc(-c2cc(NCc3ccc4c(c3)OCO4)nc(N)n2)c1 [Wnt agonist 1] | significantly increased | significantly increased |
